From patent publication EP0110570A2, “Triazole antifungal agents” (Pfizer Limited, priority 1982, dated 1984)
Read-outs that look alike come from different tables or passages of the source.

Test system: Candida albicans
Assay: In vivo protection of mice inoculated with Candida albicans (PD50)
Conditions: read-out: PD50
Description: The in vivo evaluation of the compounds can be carried out at a series of dose levels by intraperitoneal or intravenous injection or by oral administration, to mice which are inoculated with a strain of Candida albicans. Activity is based on the survival of a treated group of mice after the death of an untreated group of mice following 48 hours observation. The dose level at which the compound provides 50% protection against the lethal effect of the infection (PD50) is noted.
Using the test method described previously in the text, the following PD50 values (mg./kg.) were obtained in mice infected with Candida albicans:-

[1] = mice infected with Candida albicans, dose level giving 50% protection against the lethal effect of the infection, survival after 48 hours observation, route not specified (intraperitoneal, intravenous or oral)

Fc1ccc(C(Cl)(Cn2cncn2)C(F)(F)F)c(F)c1 (centres unmarked) [Example 1, 1-[2-chloro-2-(2,4-difluorophenyl)-3,3,3-trifluoropropyl]-1H-1,2,4-triazole]
ED50 [1]: 0.15 mg/kg

FC(F)(F)C(Cl)(Cn1cncn1)c1ccc(Cl)cc1 (centres unmarked) [Example 2]
ED50 [1]: 0.6 mg/kg

Fc1ccc(C(Cl)(Cn2cncn2)C(F)(F)F)cc1 (centres unmarked) [Example 3]
ED50 [1]: 0.6 mg/kg

Fc1ccc(C(Cl)(Cn2cncn2)C(F)(F)C(F)(F)F)cc1 (centres unmarked) [Example 4]
ED50 [1]: < 1 mg/kg

Fc1ccc(C(Cl)(Cn2cncn2)C(F)(F)C(F)(F)C(F)(F)F)c(F)c1 (centres unmarked) [Example 5]
ED50 (Candida albicans, 48 h): < 1 mg/kg
